Experimental data as given in publication PMC12155096 (International Journal of Molecular Sciences, 2025).

Assays:
CYP3A4 = CYP3A4 (Homo sapiens, UniProt P08684)
human CYP2C19 = human CYP2C19 (Homo sapiens, UniProt P33261)
human CYP2C9 = human CYP2C9 (Homo sapiens, UniProt P11712)
[1] = molecular target: Photinus pyralis (firefly) luciferase (Photinus pyralis, UniProt P08659); experiment: biochemical; assay type: biochemical; conditions: for IC50: read-out: Luciferase IC50
human CYP1A2 = molecular target: T1, human CYP1A2 (Homo sapiens, UniProt P05177)
T1 sequence (P05177 1-516): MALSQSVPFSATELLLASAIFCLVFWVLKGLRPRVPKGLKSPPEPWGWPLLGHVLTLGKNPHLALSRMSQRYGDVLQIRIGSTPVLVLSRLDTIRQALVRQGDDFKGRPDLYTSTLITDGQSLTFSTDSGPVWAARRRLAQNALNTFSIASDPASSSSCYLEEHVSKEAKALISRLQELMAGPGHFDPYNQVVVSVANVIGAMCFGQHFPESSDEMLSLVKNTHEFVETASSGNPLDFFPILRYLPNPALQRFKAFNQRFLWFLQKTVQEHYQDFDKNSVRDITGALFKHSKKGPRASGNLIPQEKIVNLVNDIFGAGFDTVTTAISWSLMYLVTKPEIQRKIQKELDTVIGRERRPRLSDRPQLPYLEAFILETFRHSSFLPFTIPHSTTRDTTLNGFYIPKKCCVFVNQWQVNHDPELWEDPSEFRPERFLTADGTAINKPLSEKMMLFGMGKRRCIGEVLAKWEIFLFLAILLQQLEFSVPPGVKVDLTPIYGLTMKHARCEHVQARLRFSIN

human CYP2D6 = human CYP2D6 (Homo sapiens, UniProt P10635)
human CYP2D6, sequence (P10635 whole entry): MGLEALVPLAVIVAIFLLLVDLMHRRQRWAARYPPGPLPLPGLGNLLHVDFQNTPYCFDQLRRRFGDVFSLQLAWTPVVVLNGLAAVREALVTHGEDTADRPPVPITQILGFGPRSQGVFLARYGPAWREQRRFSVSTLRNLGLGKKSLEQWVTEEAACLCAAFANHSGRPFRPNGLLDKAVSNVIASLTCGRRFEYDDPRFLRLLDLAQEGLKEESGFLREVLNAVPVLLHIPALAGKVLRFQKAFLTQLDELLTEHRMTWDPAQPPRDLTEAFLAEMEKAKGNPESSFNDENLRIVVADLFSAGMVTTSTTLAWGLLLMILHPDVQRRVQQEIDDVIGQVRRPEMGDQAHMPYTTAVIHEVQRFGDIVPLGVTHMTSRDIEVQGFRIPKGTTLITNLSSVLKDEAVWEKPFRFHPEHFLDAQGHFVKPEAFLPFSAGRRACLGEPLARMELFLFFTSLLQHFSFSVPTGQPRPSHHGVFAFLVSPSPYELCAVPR

human CYP2C9, sequence (P11712 whole entry): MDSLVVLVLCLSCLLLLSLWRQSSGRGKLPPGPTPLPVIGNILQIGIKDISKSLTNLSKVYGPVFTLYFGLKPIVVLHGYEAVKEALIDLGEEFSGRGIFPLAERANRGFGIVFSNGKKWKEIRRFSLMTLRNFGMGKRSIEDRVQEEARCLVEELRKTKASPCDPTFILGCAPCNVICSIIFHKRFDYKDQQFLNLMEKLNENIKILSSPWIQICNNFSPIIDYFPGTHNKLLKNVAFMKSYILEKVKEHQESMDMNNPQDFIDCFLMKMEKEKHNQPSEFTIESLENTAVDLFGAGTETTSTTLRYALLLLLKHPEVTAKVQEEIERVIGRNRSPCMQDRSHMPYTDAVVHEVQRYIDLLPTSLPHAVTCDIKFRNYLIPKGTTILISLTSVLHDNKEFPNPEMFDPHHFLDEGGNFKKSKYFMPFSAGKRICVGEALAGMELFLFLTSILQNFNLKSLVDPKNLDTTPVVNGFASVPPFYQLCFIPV
CYP3A4, sequence (P08684 whole entry): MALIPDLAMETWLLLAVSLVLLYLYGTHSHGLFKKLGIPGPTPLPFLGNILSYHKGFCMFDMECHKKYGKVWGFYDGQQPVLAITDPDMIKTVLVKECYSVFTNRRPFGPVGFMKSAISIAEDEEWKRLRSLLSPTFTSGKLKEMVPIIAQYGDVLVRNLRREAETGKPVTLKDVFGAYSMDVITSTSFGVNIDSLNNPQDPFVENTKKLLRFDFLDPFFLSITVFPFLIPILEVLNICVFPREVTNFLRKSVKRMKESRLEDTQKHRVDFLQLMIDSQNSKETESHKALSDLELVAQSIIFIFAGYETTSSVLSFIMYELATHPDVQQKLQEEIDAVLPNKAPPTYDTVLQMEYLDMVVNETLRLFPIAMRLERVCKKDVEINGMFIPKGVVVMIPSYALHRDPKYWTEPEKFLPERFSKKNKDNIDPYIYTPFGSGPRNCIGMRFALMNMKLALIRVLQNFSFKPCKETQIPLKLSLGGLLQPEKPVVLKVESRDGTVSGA
human CYP2C19, sequence (P33261 whole entry): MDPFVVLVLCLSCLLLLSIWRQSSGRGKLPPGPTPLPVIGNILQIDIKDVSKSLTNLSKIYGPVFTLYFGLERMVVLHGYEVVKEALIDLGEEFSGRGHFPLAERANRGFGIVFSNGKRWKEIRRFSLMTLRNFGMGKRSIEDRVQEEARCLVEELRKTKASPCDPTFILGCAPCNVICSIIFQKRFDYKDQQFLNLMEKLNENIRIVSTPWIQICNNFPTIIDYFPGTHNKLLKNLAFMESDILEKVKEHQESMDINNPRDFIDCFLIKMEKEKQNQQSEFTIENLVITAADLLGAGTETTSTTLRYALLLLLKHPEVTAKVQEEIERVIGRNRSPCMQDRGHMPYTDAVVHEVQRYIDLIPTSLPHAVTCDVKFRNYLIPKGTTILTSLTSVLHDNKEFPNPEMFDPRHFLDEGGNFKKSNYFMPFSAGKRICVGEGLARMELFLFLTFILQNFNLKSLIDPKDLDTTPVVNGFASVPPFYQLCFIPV
Photinus pyralis (firefly) luciferase, sequence (P08659 whole entry): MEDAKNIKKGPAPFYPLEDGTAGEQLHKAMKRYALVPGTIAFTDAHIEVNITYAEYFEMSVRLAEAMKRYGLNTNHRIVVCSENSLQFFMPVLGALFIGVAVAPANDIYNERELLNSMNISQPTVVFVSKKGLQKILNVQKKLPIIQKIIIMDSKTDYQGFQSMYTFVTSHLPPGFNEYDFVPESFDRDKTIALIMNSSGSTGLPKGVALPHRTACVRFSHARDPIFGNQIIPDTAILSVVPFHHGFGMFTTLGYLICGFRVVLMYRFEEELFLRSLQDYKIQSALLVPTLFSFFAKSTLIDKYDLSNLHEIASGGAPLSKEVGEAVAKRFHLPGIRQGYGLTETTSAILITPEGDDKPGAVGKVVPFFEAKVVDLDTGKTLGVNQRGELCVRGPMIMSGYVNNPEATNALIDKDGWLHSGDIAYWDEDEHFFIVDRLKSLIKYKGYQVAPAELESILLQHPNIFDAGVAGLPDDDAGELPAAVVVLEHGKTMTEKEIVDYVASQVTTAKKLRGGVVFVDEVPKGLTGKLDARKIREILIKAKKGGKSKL

Row | Compound | IC50 (human CYP2C19) | Luciferase IC50 (half-maximal inhibitory concentration) [1] | IC50 (human CYP2D6) | IC50 (CYP3A4) | IC50 (human CYP2C9) | IC50 [1] | IC50 (human CYP1A2) | further results
1 | CCN(CC)CCOc1ccc(Cc2ccccc2)cc1.Cl [Tesmilifene hydrochloride] | 0.43 µM | Inactive | 12.1 µM |  |  |  |  | AC50 (CYP3A4): 14.2 µM; CYP3A4 IC50 (half-maximal inhibitory concentration) (CYP3A4): 14.21 ± 3.96 (44 ± 9) µM; AC50 (human CYP2C19): 0.43 µM; CYP2C9 IC50 (half-maximal inhibitory concentration) (human CYP2C9): Inactive; CYP1A2 IC50 (half-maximal inhibitory concentration) (human CYP1A2): Inactive; AC50 (human CYP2D6): 12.1 µM
2 | CCCCCCCC[N+](CCCCCCCC)(CCCCCCCC)CCCCCCCC.[Br-] [Tetra-N-octylammonium bromide] | 16.4 µM |  | 0.4 µM | 1.87 µM | 34.2 µM | 89.2 µM | 73.8 µM | 
3 | CCCCCCCC[P+](CCCCCCCC)(CCCCCCCC)CCCCCCCC.[Br-] [Tetraoctylphosphonium bromide] | 14 µM |  | 0.75 µM | 1.73 µM | 23.2 µM | 65.5 µM | 57.7 µM | 
4 | N#Cc1c(-c2ccc(Cl)cc2)[nH]c(C(F)(F)F)c1Br [Tralopyril] | 35 µM | Inactive | 65.8 µM |  | 10.4 µM |  | 0.33 µM | CYP3A4 IC50 (half-maximal inhibitory concentration) (CYP3A4): Inactive
5 | C=CCOC(=O)c1ccc(C(=O)OCC=C)c(C(=O)OCC=C)c1 [Triallyl trimellitate] | 0.15 µM | Inactive | 46.2 µM | 1.5 µM | 0.33 µM |  | 5.66 µM | 
6 | CCCC[P+](C)(CCCC)CCCC.COS(=O)(=O)[O-] [Tributylmethylphosphonium methyl sulfate] | 63.3 µM |  | 0.24 µM |  |  |  |  | CYP3A4 IC50 (CYP3A4): Inactive; CYP2C9 IC50 (human CYP2C9): Inactive; Luciferase IC50 [1]: Inactive; CYP1A2 IC50 (human CYP1A2): Inactive
7 | CCC(COC(=O)c1cc(OC)c(OC)c(OC)c1)(c1ccccc1)N(C)C.O=C(O)/C=C\C(=O)O (stereo not shown) [Trimebutine maleate] | 30.3 µM | Inactive | 0.67 µM | 4.07 µM | 15.5 µM |  |  | CYP1A2 IC50 (half-maximal inhibitory concentration) (human CYP1A2): Inactive
8 | c1cc[c]([Bi]([c]2ccccc2)[c]2ccccc2)cc1 [Triphenylbismuth] | 0.17 µM |  | 31.9 µM | 2.36 µM | 0.73 µM |  |  | Luciferase IC50 [1]: Inactive; CYP1A2 IC50 (human CYP1A2): Inactive
9 | [Cl][Bi]([Cl])([c]1ccccc1)([c]1ccccc1)[c]1ccccc1 [Triphenylbismuthine dichloride] | 0.28 µM |  | 7.15 µM | 15 µM | 0.88 µM | 13.2 µM | 17.2 µM | 
10 | CC(=O)[O][Sn]([c]1ccccc1)([c]1ccccc1)[c]1ccccc1 [Triphenyltin acetate] | 4.84 µM |  | 0.81 µM | 8.45 µM | 1.36 µM | 3.81 µM | 47.5 µM | 
11 | Cl.FC(F)(F)c1cccc(C2=CCN(CCc3ccc4ccccc4c3)CC2)c1 [Xaliproden hydrochloride] |  | Inactive | 0.28 µM |  |  |  | 28.6 µM | AC50 (CYP3A4): 19.8 µM; CYP3A4 IC50 (half-maximal inhibitory concentration) (CYP3A4): 19.77 ± 4.14 (120 ± 18) µM; CYP2C19 IC50 (half-maximal inhibitory concentration) (human CYP2C19): Inactive; CYP2C9 Efficacy (human CYP2C9): 22.52 ± 6.28 (29 ± 5) %; CYP2C9 IC50 (half-maximal inhibitory concentration) (human CYP2C9): 22.52 ± 6.28 (29 ± 5) µM; CYP1A2 Efficacy (human CYP1A2): 28.62 ± 14.29 (-37 ± 3) %; CYP2D6 Efficacy (human CYP2D6): 0.28 ± 0.18 (-100 ± 3) %
12 | C[C@H]1CCC[C@H](O)CCCCCc2cc(O)cc(O)c2C(=O)O1 [Zearalanol] | 19.5 µM | Inactive | 57 µM | 1 µM | 27.3 µM |  | 33.4 µM | 
13 | Cimicifugoside |  | Inactive |  | 0.89 µM | 41.1 µM |  |  | CYP2C19 IC50 (half-maximal inhibitory concentration) (human CYP2C19): Inactive; CYP1A2 IC50 (half-maximal inhibitory concentration) (human CYP1A2): Inactive; CYP2D6 IC50 (half-maximal inhibitory concentration) (human CYP2D6): Inactive
